pIC50: −log10 of the molar value.
What follows are molecules tested against T1, BTK (Homo sapiens, UniProt Q06187) (assay: In vitro BTK kinase assay: BTK-POLYGAT-LS ASSAY). Details: ATP 10 uM.
T1 construct: purchased Upstate 14-552
Format: biochemical
Summary of the method: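 BTK phosphorylation of polyGAT (100 nM final) with ATP at 10 μM final, 10 mM Tris-HCl pH 7.5 kinase buffer, quenched by EDTA after 30 min. Potency given as IC50.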

T1 sequence (Q06187 whole entry): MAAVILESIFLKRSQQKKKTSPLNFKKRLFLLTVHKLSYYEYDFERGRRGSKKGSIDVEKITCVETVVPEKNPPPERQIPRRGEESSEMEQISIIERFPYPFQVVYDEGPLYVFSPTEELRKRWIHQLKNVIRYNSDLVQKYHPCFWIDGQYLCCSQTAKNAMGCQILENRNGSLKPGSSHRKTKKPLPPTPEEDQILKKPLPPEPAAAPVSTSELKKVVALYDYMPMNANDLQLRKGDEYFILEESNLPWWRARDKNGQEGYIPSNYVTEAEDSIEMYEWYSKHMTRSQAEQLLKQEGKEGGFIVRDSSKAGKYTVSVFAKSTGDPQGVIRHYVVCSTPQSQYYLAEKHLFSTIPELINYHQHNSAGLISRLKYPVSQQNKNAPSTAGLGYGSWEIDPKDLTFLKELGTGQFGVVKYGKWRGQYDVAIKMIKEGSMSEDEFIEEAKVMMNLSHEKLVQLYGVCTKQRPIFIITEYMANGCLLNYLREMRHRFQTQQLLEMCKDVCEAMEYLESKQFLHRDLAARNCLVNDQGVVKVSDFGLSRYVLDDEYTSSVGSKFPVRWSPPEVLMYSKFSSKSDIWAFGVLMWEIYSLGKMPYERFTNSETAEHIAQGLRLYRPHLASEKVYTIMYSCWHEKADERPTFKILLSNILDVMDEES

| Structure (SMILES) | pIC50 |
| --- | --- |
| O=C(CNc1cc(F)cc(F)c1)NC1CCCN(c2ncnc3[nH]ccc23)C1 (centres unmarked) [Example 68, (N-(1-(7H-pyrrolo[2,3-d]pyrimidin-4-yl)piperidin-3-yl)-2-(3,5-difluorophenylamino)acetamide)] | > 7.00 |
| O=C(CNc1cc(F)ccc1F)N[C@@H]1CCCN(c2ncnc3[nH]ccc23)C1 [Example 446] | 6.00 to 7.00 |
| Cc1ccc(NCC(=O)N[C@@H]2CCCN(c3ncnc4[nH]ccc34)C2)c(F)c1 [Example 420] | 5.00 to 6.00 |
| Cc1cc(Cl)ccc1NCC(=O)N[C@@H]1CCCN(c2ncnc3[nH]ccc23)C1 [Example 419] | 6.00 to 7.00 |
| O=C(N[C@@H]1CCCN(c2ncnc3[nH]ccc23)C1)[C@H](Nc1cc(F)cc(C(F)(F)F)c1)C1CC1 [Example 121, (R)—N—((R)-1-(7H-pyrrolo[2,3-d]pyrimidin-4-yl)piperidin-3-yl)-2-cyclopropyl-2-(3-fluoro-5-(trifluoromethyl)phenylamino)acetamide] | > 7.00 |
| O=C(CNCC1CCCCC1)NC1CCCN(c2ncnc3[nH]ccc23)C1 (centres unmarked) [Example 357] | < 5.00 |
| O=C(CNc1cccc(-c2nnn[nH]2)c1)N[C@@H]1CCCN(c2ncnc3[nH]ccc23)C1 [Example 400] | 5.00 to 6.00 |
| CN(C1CCCC1)S(=O)(=O)c1ccccc1NCC(=O)N[C@@H]1CCCN(c2ncnc3[nH]ncc23)C1 [Example 211] | > 7.00 |
| O=C(CNc1ccccc1C(=O)N1CCOCC1)N[C@@H]1CCCN(c2ncnc3[nH]ccc23)C1 [Example 374] | 6.00 to 7.00 |
| Cc1ccc(NCC(=O)N[C@@H]2CCCN(c3ncnc4[nH]ccc34)C2)cc1 [Example 426] | 6.00 to 7.00 |
| O=C(CNc1ccc(F)cc1F)NC1CCCN(c2ncnc3[nH]ccc23)C1 (centres unmarked) [Example 67, (N-(1-(7H-pyrrolo[2,3-d]pyrimidin-4-yl)piperidin-3-yl)-2-(2,4-difluorophenylamino)acetamide)] | 6.00 to 7.00 |
| O=C(CNc1ccccc1Sc1ccccc1)N[C@@H]1CCCN(c2ncnc3[nH]ncc23)C1 [Example 167] | > 7.00 |
| CC(O)c1cccc(NCC(=O)N[C@@H]2CCCN(c3ncnc4[nH]ccc34)C2)c1 (some centres unmarked) [Example 397] | 5.00 to 6.00 |
| O=C(N[C@@H]1CCCN(c2ncnc3[nH]ccc23)C1)C(Nc1ccccc1)C(F)(F)F (some centres unmarked) [Example 449] | 5.00 to 6.00 |
| Cc1ccc(Cl)c(NCC(=O)N[C@@H]2CCCN(c3ncnc4[nH]ccc34)C2)c1 [Example 313] | 6.00 to 7.00 |
| O=C(CNc1cc(F)cc(Cl)c1)N[C@@H]1CCCN(c2ncnc3[nH]ncc23)C1 [Example 385] | > 7.00 |
| COc1c(Cl)cccc1NCC(=O)NC1CCCN(c2ncnc3[nH]ccc23)C1 (centres unmarked) [Example 53, (N-(1-(7H-pyrrolo[2,3-d]pyrimidin-4-yl)piperidin-3-yl)-2-(3-chloro-2-methoxyphenylamino)acetamide)] | 6.00 to 7.00 |
| Cc1ccc(NCC(=O)NC2CCCN(c3ncnc4[nH]ccc34)C2)cc1C(F)(F)F (centres unmarked) [Example 65, (N-(1-(7H-pyrrolo[2,3-d]pyrimidin-4-yl)piperidin-3-yl)-2-(4-methyl-3-(trifluoromethyl)phenylamino)acetamide)] | 6.00 to 7.00 |
| CCC[C@@H](Nc1cc(Cl)cc(Cl)c1)C(=O)N[C@@H]1CCCN(c2ncnc3[nH]ncc23)C1 [Example 166] | > 7.00 |
| CC(C)CN(CC(C)C)S(=O)(=O)c1ccccc1NCC(=O)N[C@@H]1CCCN(c2ncnc3[nH]ccc23)C1 [Example 179] | > 7.00 |
| CC(C)(C)c1ccc(NCC(=O)NC2CCCN(c3ncnc4[nH]ccc34)C2)cc1 (centres unmarked) [Example 19, (N-(1-(7H-pyrrolo[2,3-d]pyrimidin-4-yl)piperidin-3-yl)-2-(4-tert-butylphenylamino)acetamide)] | < 5.00 |
| CNC(=O)c1cnc(NC2CCCN(c3ncnc4[nH]ccc34)C2)s1 (centres unmarked) [Example 344] | < 5.00 |
| Cc1ccc(F)cc1NCC(=O)N[C@@H]1CCCN(c2ncnc3[nH]ccc23)C1 [Example 273] | > 7.00 |
| O=C(CNc1ccc2c(c1)OCO2)NC1CCCN(c2nccc3[nH]ccc23)C1 (centres unmarked) [Example 335] | < 5.00 |
| CC[C@@H](Nc1cc(F)cc(Cl)c1)C(=O)N[C@@H]1CCCN(c2ncnc3[nH]ncc23)C1 [Example 129, (R)—N—((R)-1-(1H-pyrazolo[3,4-d]pyrimidin-4-yl)piperidin-3-yl)-2-(3-chloro-5-fluorophenylamino)butanamide] | > 7.00 |
| CC(C)CCSc1ccccc1NCC(=O)N[C@@H]1CCCN(c2ncnc3[nH]ccc23)C1 [Example 188] | > 7.00 |
| O=C(N[C@@H]1CCCN(c2ncnc3[nH]ccc23)C1)[C@H](Nc1ccccc1)c1ccccc1 [Example 106, (R)—N—((R)-1-(7H-pyrrolo[2,3-d]pyrimidin-4-yl)piperidin-3-yl)-2-phenyl-2-(phenylamino)acetamide] | < 5.00 |

| Structure (SMILES) | pIC50 |
| --- | --- |
| CCC[C@@H](Nc1cc(Cl)cc(Cl)c1)C(=O)N[C@@H]1CCCN(c2ncnc3[nH]ccc23)C1 [Example 178] | > 7.00 |
| Cc1nc(-c2cccc(NCC(=O)N[C@@H]3CCCN(c4ncnc5[nH]ccc45)C3)c2)cs1 [Example 289] | 6.00 to 7.00 |
| O=C(CNc1ccccc1S(=O)(=O)N1CCC(C(F)(F)F)CC1)N[C@@H]1CCCN(c2ncnc3[nH]ncc23)C1 [Example 228] | > 7.00 |
| CN(C)S(=O)(=O)c1ccccc1NCC(=O)N[C@@H]1CCCN(c2ncnc3[nH]ccc23)C1 [Example 288] | 6.00 to 7.00 |
| CC(C)c1ccccc1N[C@@H](C(=O)N[C@@H]1CCCN(c2ncnc3[nH]ccc23)C1)C(C)(C)C [Example 300] | 6.00 to 7.00 |
| O=C(CNc1cccc2cccnc12)NC1CCCN(c2ncnc3[nH]ccc23)C1 (centres unmarked) [Example 81, (N-(1-(7H-pyrrolo[2,3-d]pyrimidin-4-yl)piperidin-3-yl)-2-(quinolin-8-ylamino)acetamide)] | 5.00 to 6.00 |
| O=C(CNC(=O)c1cccc2ccccc12)NC1CCCN(c2ncnc3[nH]ccc23)C1 (centres unmarked) [Example 97, (N-(2-(1-(7H-pyrrolo[2,3-d]pyrimidin-4-yl)piperidin-3-ylamino)-2-oxoethyl)-1-naphthamide)] | 6.00 to 7.00 |
| CC[C@@H](Nc1cc(F)cc(Cl)c1)C(=O)N[C@@H]1CCCN(c2ncnc3[nH]ccc23)C1 [Example 225] | > 7.00 |
| O=C(NC1CCCCN(c2ncnc3[nH]ncc23)C1)[C@H](Nc1cc(Cl)cc(Cl)c1)C1CC1 (some centres unmarked) [Example 364] | > 7.00 |
| O=C(CNc1ccncc1)NC1CCCN(c2ncnc3[nH]ccc23)C1 (centres unmarked) [Example 353] | < 5.00 |
| CCCN(CC)S(=O)(=O)c1ccccc1NCC(=O)N[C@@H]1CCCN(c2ncnc3[nH]ncc23)C1 [Example 172] | > 7.00 |
| O=C(N[C@@H]1CCCN(c2ncnc3[nH]ccc23)C1)[C@H](Nc1ccccc1)C1CCCCC1 [Example 109, (R)—N—((R)-1-(7H-pyrrolo[2,3-d]pyrimidin-4-yl)piperidin-3-yl)-2-cyclohexyl-2-(phenylamino)acetamide] | 5.00 to 6.00 |
| C[C@H]1CC[C@@H](NC(=O)[C@H](Nc2cc(F)cc(Cl)c2)C2CC2)CN1c1ncnc2[nH]ncc12 [Example 148, (R)-2-(3-chloro-5-fluorophenylamino)-2-cyclopropyl-N-((3R,6S)-6-methyl-1-(1H-pyrazolo[3,4-d]pyrimidin-4-yl)piperidin-3-yl)acetamide] | 6.00 to 7.00 |
| C[C@H]1CCN(c2ncnc3[nH]ncc23)C[C@@H]1NC(=O)[C@H](Nc1cc(Cl)cc(Cl)c1)C1CC1 [Example 152, (R)-2-cyclopropyl-2-(3,5-dichlorophenylamino)-N-((3R,4S)-4-methyl-1-(1H-pyrazolo[3,4-d]pyrimidin-4-yl)piperidin-3-yl)acetamide] | > 7.00 |
| O=C(CNc1cccc(C(F)(F)F)c1F)NC1CCCN(c2ncnc3[nH]ccc23)C1 (centres unmarked) [Example 70, (N-(1-(7H-pyrrolo[2,3-d]pyrimidin-4-yl)piperidin-3-yl)-2-(2-fluoro-3-(trifluoromethyl)phenylamino)acetamide)] | 6.00 to 7.00 |
| CC(C)(Nc1ccccc1)C(=O)N[C@@H]1CCCN(c2ncnc3[nH]ccc23)C1 [Example 128, (R)—N-(1-(7H-pyrrolo[2,3-d]pyrimidin-4-yl)piperidin-3-yl)-2-methyl-2-(phenylamino)propanamide] | 5.00 to 6.00 |
| O=C(CNc1ccccc1)N(CC1CCCCC1)C1CCCN(c2ncnc3[nH]ccc23)C1 (centres unmarked) [Example 88, (N-(1-(7H-pyrrolo[2,3-d]pyrimidin-4-yl)piperidin-3-yl)-N-(cyclohexylmethyl)-2-(phenylamino)acetamide)] | 5.00 to 6.00 |
| O=C(CNc1cccc(-c2ccccc2)c1)NC1CCCN(c2ncnc3[nH]ccc23)C1 (centres unmarked) [Example 39, (N-(1-(7H-pyrrolo[2,3-d]pyrimidin-4-yl)piperidin-3-yl)-2-(biphenyl-3-ylamino-)acetamide)] | > 7.00 |
| CC[C@@H](Nc1cccc(Cl)c1)C(=O)N[C@@H]1CCCN(c2ncnc3[nH]ncc23)C1 [Example 131, (R)—N—((R)-1-(1H-pyrazolo[3,4-d]pyrimidin-4-yl)piperidin-3-yl)-2-(3-chlorophenylamino)butanamide] | > 7.00 |
| CCC[C@@H](Nc1cc(Cl)cc(Cl)c1)C(=O)N[C@H]1CN(c2ncnc3[nH]ncc23)CC[C@@H]1C [Example 153] | > 7.00 |
| O=C(CNc1cc(C(F)(F)F)ccc1N1CCCC1)N[C@@H]1CCCN(c2ncnc3[nH]ccc23)C1 [Example 278] | 6.00 to 7.00 |
| C[C@H](O)[C@@H](Nc1ccccc1)C(=O)N[C@@H]1CCCN(c2ncnc3[nH]ccc23)C1 [Example 111, (2R,3S)—N—((R)-1-(7H-pyrrolo[2,3-d]pyrimidin-4-yl)piperidin-3-yl)-3-hydroxy-2-(phenylamino)butanamide] | 6.00 to 7.00 |
| CC(C)c1ccccc1N[C@@H](C(=O)N[C@@H]1CCCN(c2ncnc3[nH]ccc23)C1)C(C)C [Example 263] | 6.00 to 7.00 |
| C[C@@H](O)[C@@H](Nc1ccccc1)C(=O)N[C@@H]1CCCN(c2ncnc3[nH]ccc23)C1 [Example 110, (2R,3R)—N—((R)-1-(7H-pyrrolo[2,3-d]pyrimidin-4-yl)piperidin-3-yl)-3-hydroxy-2-(phenylamino)butanamide] | 6.00 to 7.00 |
| O=C(CNC1CCCCC1)NC1CCCN(c2ncnc3[nH]ccc23)C1 (centres unmarked) [Example 354] | < 5.00 |
| CC(C)(C)c1ccccc1NCC(=O)N[C@@H]1CCCN(c2ncnc3[nH]ccc23)C1 [Example 416] | 5.00 to 6.00 |

Source: patent US9029359B2, “Heteroaryl Btk inhibitors” (Biogen Idec MA, Inc., priority 2009, dated 2015)
